{"source": "ChEMBL document CHEMBL1122367", "about": "“Synthesis and antihypertensive activity of a series of spiro[1,3,4,6,7,11b-hexahydro-2H-benzo[a]quinolizine-2,5'-oxazolidin-2'-one]s” (1983)", "key": {"Rattus norvegicus [1]": {"system": "Rattus norvegicus", "assay": "Antihypertensive activity as percentage fall in systolic blood pressure in spontaneously hypertensive rats 4 hr after 12.5 mg/kg po administration;NS means nonsignificant difference between treated and control group", "type": "functional, organism-based", "set-up": "dose 12.5 mg/kg", "settings": "Artery, at 12.5 mg/kg"}, "Rattus norvegicus [2]": {"system": "Rattus norvegicus", "assay": "Antihypertensive activity as percentage fall in systolic blood pressure in spontaneously hypertensive rats 2 hr after 12.5 mg/kg po administration;NS means nonsignificant difference between treated and control group", "type": "functional, organism-based", "set-up": "dose 12.5 mg/kg", "settings": "Artery, at 12.5 mg/kg"}, "Rattus norvegicus [3]": {"system": "Rattus norvegicus", "assay": "Antihypertensive activity as percentage fall in systolic blood pressure in spontaneously hypertensive rats 1 hr after 25 mg/kg po administration", "type": "functional, Artery"}, "Rattus norvegicus [4]": {"system": "Rattus norvegicus", "assay": "Antihypertensive activity as percentage fall in systolic blood pressure in spontaneously hypertensive rats 1 hr after 12.5 mg/kg po administration;NS means nonsignificant difference between treated and control group", "type": "functional, organism-based", "set-up": "dose 12.5 mg/kg", "settings": "Artery, at 12.5 mg/kg"}, "Rattus norvegicus [5]": {"system": "Rattus norvegicus", "assay": "Antihypertensive activity as percentage fall in systolic blood pressure in spontaneously hypertensive rats 4 hr after 25 mg/kg po administration", "type": "functional, Artery"}, "Rattus norvegicus [6]": {"system": "Rattus norvegicus", "assay": "Antihypertensive activity as percentage fall in systolic blood pressure in spontaneously hypertensive rats 2 hr after 25 mg/kg po administration", "type": "functional, Artery"}, "Rattus norvegicus [7]": {"system": "Rattus norvegicus", "assay": "Antihypertensive activity as percentage fall in systolic blood pressure in spontaneously hypertensive rats 3h after 12.5 mg/kg po administration;NS means nonsignificant difference between treated and control group", "type": "functional, organism-based", "set-up": "dose 12.5 mg/kg", "settings": "Artery, at 12.5 mg/kg"}, "Rattus norvegicus [8]": {"system": "Rattus norvegicus", "assay": "Antihypertensive activity as percentage fall in systolic blood pressure in spontaneously hypertensive rats 3h after 25 mg/kg po administration", "type": "functional, Artery"}, "Rattus norvegicus [9]": {"system": "Rattus norvegicus", "assay": "Antihypertensive activity as percentage fall in systolic blood pressure in spontaneously hypertensive rats 3h after 1.25 mg/kg po administration"}, "Rattus norvegicus [10]": {"system": "Rattus norvegicus", "assay": "Antihypertensive activity as percentage fall in systolic blood pressure in spontaneously hypertensive rats 1 hr after 0.31 mg/kg po administration", "type": "functional, Artery"}, "Rattus norvegicus [11]": {"system": "Rattus norvegicus", "assay": "Antihypertensive activity as percentage fall in systolic blood pressure in spontaneously hypertensive rats 3h after 0.31 mg/kg po administration", "type": "functional, Artery"}, "Rattus norvegicus [12]": {"system": "Rattus norvegicus", "assay": "Antihypertensive activity as percentage fall in systolic blood pressure in spontaneously hypertensive rats 4 hr after 0.31 mg/kg po administration", "type": "functional, Artery"}, "Rattus norvegicus [13]": {"system": "Rattus norvegicus", "assay": "Antihypertensive activity as percentage fall in systolic blood pressure in spontaneously hypertensive rats 4 hr after 1.25 mg/kg po administration"}, "Rattus norvegicus [14]": {"system": "Rattus norvegicus", "assay": "Antihypertensive activity as percentage fall in systolic blood pressure in spontaneously hypertensive rats 1 hr after 1.25 mg/kg po administration"}, "Rattus norvegicus [15]": {"system": "Rattus norvegicus", "assay": "Antihypertensive activity as percentage fall in systolic blood pressure in spontaneously hypertensive rats 2 hr after 1.25 mg/kg po administration"}, "Rattus norvegicus [16]": {"system": "Rattus norvegicus", "assay": "Antihypertensive activity as percentage fall in systolic blood pressure in spontaneously hypertensive rats 2 hr after 0.31 mg/kg po administration", "type": "functional, Artery"}, "Rattus norvegicus [17]": {"system": "Rattus norvegicus", "assay": "Percentage fall in systolic blood pressure in spontaneously hypertensive rats 2 hr after 50 mg/kg p.o. administration.", "type": "functional, Artery", "settings": "route oral"}, "Rattus norvegicus [18]": {"system": "Rattus norvegicus", "assay": "Antihypertensive activity as percentage fall in systolic blood pressure in spontaneously hypertensive rats 2 hr after 25 mg/kg po administration;NS means nonsignificant difference between treated and control group", "type": "functional, organism-based", "set-up": "dose 25 mg/kg", "settings": "Artery, at 25 mg/kg"}, "Rattus norvegicus [19]": {"system": "Rattus norvegicus", "assay": "Antihypertensive activity as percentage fall in systolic blood pressure in spontaneously hypertensive rats 1 hr after 50 mg/kg po administration", "type": "functional, Artery"}, "Rattus norvegicus [20]": {"system": "Rattus norvegicus", "assay": "Antihypertensive activity as percentage fall in systolic blood pressure in spontaneously hypertensive rats 4 hr after 25 mg/kg po administration;NS means nonsignificant difference between treated and control group", "type": "functional, organism-based", "set-up": "dose 25 mg/kg", "settings": "Artery, at 25 mg/kg"}, "Rattus norvegicus [21]": {"system": "Rattus norvegicus", "assay": "Percentage fall in systolic blood pressure in spontaneously hypertensive rats 3h after 50 mg/kg p.o. administration; Not significant.", "type": "functional, organism-based", "set-up": "dose 50 mg/kg", "settings": "Artery, at 50 mg/kg"}, "Rattus norvegicus [22]": {"system": "Rattus norvegicus", "assay": "Antihypertensive activity as percentage fall in systolic blood pressure in spontaneously hypertensive rats 1 hr after 25 mg/kg po administration;NS means nonsignificant difference between treated and control group", "type": "functional, organism-based", "set-up": "dose 25 mg/kg", "settings": "Artery, at 25 mg/kg"}, "Rattus norvegicus [23]": {"system": "Rattus norvegicus", "assay": "Antihypertensive activity as percentage fall in systolic blood pressure in spontaneously hypertensive rats 4 hr after 50 mg/kg po administration", "type": "functional, Artery"}}, "note": "The source made the active and inactive calls. No cut-off for these calls is given here.", "data": [{"compound": "O=C(NC1CCN(CCc2c[nH]c3ccccc23)CC1)c1ccccc1", "note": "[INDORAMIN]", "values": [{"measurement": "Fall", "setting": "Rattus norvegicus [1]", "result": "inactive"}, {"measurement": "Fall", "setting": "Rattus norvegicus [2]", "result": "inactive"}, {"measurement": "Fall", "setting": "Rattus norvegicus [3]", "result": 27, "unit": "%"}, {"measurement": "Fall", "setting": "Rattus norvegicus [4]", "result": "inactive"}, {"measurement": "Fall", "setting": "Rattus norvegicus [5]", "result": 30, "unit": "%"}, {"measurement": "Fall", "setting": "Rattus norvegicus [6]", "result": 28, "unit": "%"}, {"measurement": "Fall", "setting": "Rattus norvegicus [7]", "result": "inactive"}, {"measurement": "Fall", "setting": "Rattus norvegicus [8]", "result": 34, "unit": "%"}]}, {"compound": "COc1cc2nc(N3CCN(C(=O)c4ccco4)CC3)nc(N)c2cc1OC", "note": "[PRAZOSIN]", "values": [{"measurement": "Fall", "setting": "Rattus norvegicus [9]", "result": 36, "unit": "%"}, {"measurement": "Fall", "setting": "Rattus norvegicus [10]", "result": 19, "unit": "%"}, {"measurement": "Fall", "setting": "Rattus norvegicus [11]", "result": 21, "unit": "%"}, {"measurement": "Fall", "setting": "Rattus norvegicus [12]", "result": 26, "unit": "%"}, {"measurement": "Fall", "setting": "Rattus norvegicus [13]", "result": 31, "unit": "%"}, {"measurement": "Fall", "setting": "Rattus norvegicus [14]", "result": 26, "unit": "%"}, {"measurement": "Fall", "setting": "Rattus norvegicus [15]", "result": 46, "unit": "%"}, {"measurement": "Fall", "setting": "Rattus norvegicus [16]", "result": 31, "unit": "%"}]}, {"compound": "CCN1C[C@]2(CCN3CCc4cc(OC)c(OC)cc4[C@@H]3C2)OC1=O", "values": [{"measurement": "Fall", "setting": "Rattus norvegicus [17]", "result": 30, "unit": "%"}, {"measurement": "Fall", "setting": "Rattus norvegicus [18]", "result": "Not significant"}, {"measurement": "Fall", "setting": "Rattus norvegicus [19]", "result": 43, "unit": "%"}, {"measurement": "Fall", "setting": "Rattus norvegicus [20]", "result": "Not significant"}, {"measurement": "Fall", "setting": "Rattus norvegicus [21]", "result": "Not significant"}, {"measurement": "Fall", "setting": "Rattus norvegicus [22]", "result": "Not significant"}, {"measurement": "Fall", "setting": "Rattus norvegicus [8]; Artery, at 25 mg/kg", "result": "Not significant"}, {"measurement": "Fall", "setting": "Rattus norvegicus [23]", "result": 18, "unit": "%"}]}]}
